Activity calls are given as the source filed them. The rule behind the calls is not given here. Non-standard residues stand in square brackets, D forms with d. Residues, ends and D or L forms follow the SMILES beside them. Chg = N[C@H](C(=O)O)C1CCCCC1
Key:
[1] = target: T1, Growth/differentiation factor 8 (Homo sapiens, UniProt O14793); experiment: (§1) Inhibition of myostatin (unknown origin) expressed in HEK293 cells incubated for 4 hrs by dual luciferase reporter gene assay; assay type: cell-based
T1 sequence (O14793 whole entry): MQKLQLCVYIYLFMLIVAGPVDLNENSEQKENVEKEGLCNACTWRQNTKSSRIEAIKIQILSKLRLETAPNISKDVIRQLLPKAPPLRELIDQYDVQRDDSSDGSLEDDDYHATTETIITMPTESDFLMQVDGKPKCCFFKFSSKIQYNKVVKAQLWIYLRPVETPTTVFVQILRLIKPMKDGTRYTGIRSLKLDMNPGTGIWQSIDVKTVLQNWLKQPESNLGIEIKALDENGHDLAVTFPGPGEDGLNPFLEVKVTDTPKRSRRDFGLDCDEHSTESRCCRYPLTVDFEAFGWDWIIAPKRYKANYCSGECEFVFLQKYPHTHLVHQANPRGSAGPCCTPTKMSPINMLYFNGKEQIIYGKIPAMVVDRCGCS

[2] = target: Growth/differentiation factor 8 (Homo sapiens) (UniProt O14793); experiment: as §1; assay type: cell-based
[3] = target: Growth/differentiation factor 8 (Homo sapiens) (UniProt O14793); experiment: Inhibition of myostatin (unknown origin) expressed in HEK293 cells at 10 uM incubated for 4 hrs by dual luciferase reporter gene assay; assay type: cell-based
[4] = target: Transforming growth factor beta-1 proprotein (Homo sapiens) (UniProt P01137); experiment: Inhibition of TGFbeta1 (unknown origin) expressed in HEK293 cells at 0.3 to 10 uM incubated for 4 hrs by dual luciferase reporter gene assay; assay type: cell-based
Mus musculus = experiment: Effect on muscle growth in C57BL/6J mouse assessed as increase in tibialis anterior muscle weight at 20 nmol administered intramuscularly measured at day 28 relative to control; assay type: functional
HEK293 = experiment: Inhibition of activin A (unknown origin) expressed in HEK293 cells at 0.3 to 10 uM incubated for 4 hrs by dual luciferase reporter gene assay; assay type: cell-based; conditions: Homo sapiens

Chain of Transforming growth factor beta-1 proprotein (Homo sapiens) (P01137 279-390 limits assumed): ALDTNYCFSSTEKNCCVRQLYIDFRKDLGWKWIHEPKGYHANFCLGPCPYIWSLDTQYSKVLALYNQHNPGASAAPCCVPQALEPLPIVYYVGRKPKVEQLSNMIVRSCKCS

IC50 [1] [µM] | inhibition [2] | inhibition [3] | inhibition [4] | SMILES | Activity (Mus musculus) [%] | inhibition (HEK293)
3.56 |  |  |  | CC[C@H](C)[C@H](NC(=O)[C@H](CCC(N)=O)NC(=O)[C@@H](NC(=O)[C@H](CCCCN)NC(=O)[C@@H](NC(=O)[C@@H](Cc1c[nH]c2ccccc12)NC(=O)[C@H](CCCNC(=N)N)NC(=O)[C@@H](NC(=O)[C@H](Cc1ccc(O)cc1)NC(=O)[C@@H](N)Cc1c[nH]c2ccccc12)[C@@H](C)CC)[C@@H](C)CC)C1CCCCC1)C(=O)N[C@@H](Cc1c[nH]c2ccccc12)C(=O)N[C@@H](CO)C(=O)N[C@@H](CCCCN)C(=O)N[C@H](C(=O)N[C@@H](CCCNC(=N)N)C(=O)N[C@@H](CC(C)C)C(N)=O)C1CCCCC1 (H-WYIR[dW]IK[Chg]QIWSK[Chg]RL-NH2) |  | 
6.2 | Dose-dependent effect | Active | inactive | CC[C@H](C)[C@H](NC(=O)[C@H](CCSC)NC(=O)[C@H](Cc1c[nH]c2ccccc12)NC(=O)[C@H](CCCCN)NC(=O)[C@H](Cc1ccccc1)NC(=O)[C@H](CC(C)C)NC(=O)[C@@H](NC(=O)[C@H](CC(N)=O)NC(=O)[C@H](CC(=O)O)NC(=O)[C@H](CC(N)=O)NC(=O)[C@@H](N)C(C)C)[C@@H](C)O)C(=O)N[C@@H](Cc1ccccc1)C(=O)N[C@@H](CC(N)=O)C(=O)NCC(N)=O (H-VNDNTLFKWMIFNG-NH2) | 112 | inactive

— ChEMBL document CHEMBL4610025, “Discovery of a follistatin-derived myostatin inhibitory peptide” (Bioorg Med Chem Lett, 2020)
